This is an account of results in article PMC5380659, “Unique charge-dependent constraint on collagen recognition by integrin α10β1” (Matrix Biology, 2017).

Numbering of substitutions follows the chain as printed. Entries after “also recorded” stand apart in the source; their conditions may differ.

One experiment has as its system C2C12-α10β1 cells. The experiment is described as follows: LDH-based SPBA of C2C12-α10β1 cell adhesion. Details: species or system mouse. The settings on record: short THPs, 2 mM Mg^2 +, 1 h, Fig. 4B. As to the method:
The mouse myoblast cell line, C2C12-α10β1 clone, expresses α10β1 as its sole collagen-binding integrin [16]. To investigate the binding of α10β1 to collagen in a cellular and whole integrin context, therefore, the adhesion of C2C12-α10β1 cells to Toolkits II and III was performed using two different approaches. First, SPBA was used, with lactate dehydrogenase to report the presence of adherent cells, after lysis, as described in Experimental. […] C2C12-α10B1 cells generally bound more prominently to those weaker peptides that supported just-observable binding of free I-domain. This may reflect avidity of the receptor-populated cell surface for the peptide-coated wells, or perhaps up-regulation of integrin affinity following receptor engagement. It is also possible that some cell binding reflects specific indirect interactions. For example, fibronectin, available either by intrinsic expression or from the serum supplement, binds well to II-44, and can also bind integrin αVβ3 [21].
Fig. 2 Binding of α10β1-transfected C2C12 cells to Collagen Toolkits. 96-well plates were coated with peptides as for Fig. 1, then C2C12-α10β1 cells (5 × 10^4 per well) were added and incubated for 1 h in the presence of either 2 mM MgCl2 or 2 mM EDTA as above. A: binding to Toolkit II. B: binding to Toolkit III.
The mouse myoblast cell line, C2C12, (control and transfectants, C2C12-α1β1, C2C12-α2β1, C2C12-α10β1 or C2C12-α11β1) was maintained in RPMI medium containing 10% fetal bovine serum, 2 mM glutamine, 100 IU/ml penicillin, 100 μg/ml streptomycin, and 2.5 μg/ml amphotericin. Cells were harvested by centrifugation, washed, and suspended at 0.5 × 10^6/ml in Tris-buffered saline supplemented with 5.5 mM glucose and either 2 mM EDTA or 2 mM MgCl2. SPBA was performed as follows: 100 μl of the cell suspension was added to peptide-coated wells [42] at 20 °C for 60 min. Cell adhesion was determined colorimetrically after lysis, using a lactate dehydrogenase (LDH)-based cell detection kit (Roche Diagnostics) according to the supplier's instructions.

In another experiment the target is T1, wild type α10 I domain (Homo sapiens, UniProt O75578).
T1 construct: Recombinant human α10 I domain-encoding plasmid (pGEX-2T-α10 I domain) was cloned using standard procedures; made in house; host or cells: bacteria (pGEX-2T plasmid; the Origami strain is stated only for α2 I domains)
T1 sequence (O75578 167-350 limits assumed): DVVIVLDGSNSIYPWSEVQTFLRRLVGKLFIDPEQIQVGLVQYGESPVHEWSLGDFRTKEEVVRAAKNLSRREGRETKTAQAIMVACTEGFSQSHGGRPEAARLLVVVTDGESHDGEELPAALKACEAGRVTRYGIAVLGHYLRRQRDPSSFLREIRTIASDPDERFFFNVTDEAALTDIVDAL
The experiment is described as follows: Concentration-dependent SPBA (KD) of wild-type α10 I domain. It is filed as binding. Particulars: SPBA concentration dependence; for Saturation / quality of binding, wild type α10 I domain: up to 100 μg/ml; for KD, wild type α10 I domain: I domain up to 100 μg/ml, Fig. 9C and D. As for the experimental part: (§1) 96-well plates were prepared as for Fig. 1. A: binding to Toolkit II, B: binding to Toolkit III.
(§2) I domain adhesion was determined colorimetrically, as described, here termed solid phase binding assay (SPBA). Peptides were coated at 10 μg/ml for 1 h at 22 °C on Immulon-2 HB 96-well plates (Thermo Life Sciences, Basingstoke, UK), and blocked for 1 h with 200 μl of TBS containing 50 mg/ml bovine serum albumin. […] Wells were washed five times with 200 μl of adhesion buffer containing MgCl2 or EDTA, before adding 100 μl of adhesion buffer containing the anti-GST-HRP conjugate at 1:10,000 dilution for 1 h at room temperature. After washing, colour was developed using an ImmunoPure TMB Substrate Kit (Pierce) according to the manufacturer's instructions.

A further experiment concerns the target T2, R215Q α10 I domain (Homo sapiens, UniProt O75578, R237Q).
T2 construct: made in house; host or cells: bacteria
T2 sequence (O75578 167-350 R237Q): T1 sequence (O75578 167-350 limits assumed) with R71Q
The experiment is described as follows: Concentration-dependent SPBA (KD) of α10-R215Q I domain. It counts as binding. Particulars: SPBA concentration dependence; for Saturation / quality of binding, R215Q α10 I domain: up to 100 μg/ml; for KD, R215Q α10 I domain: I domain up to 100 μg/ml, Fig. 9C and D. As to the method: as §1, §2

For the next experiment, the system named is α2β1. Also on record: method as in 4 sources, ref [8], [10] = [8]; PMID 16326707; doi:10.1074/jbc.M509818200; 8 Raynal N. Hamaia S.W. Siljander P.R. Maddox B. Peachey A.R. Fernandez R. Foley L.J. Slatter D.A. Jarvis G.E. Farndale R.W. Use of synthetic peptides to locate novel integrin alpha2beta1-binding moti || [10]; PMID 16043429; doi:10.1074/jbc.M502431200; 10 Kim J.K. Xu Y. Xu X. Keene D.R. Gurusiddappa S. Liang X. Wary K.K. Hook M. A novel binding site in collagen type III for the integrins, alpha 1beta 1 and alpha 2beta 1 J. Biol. Chem. 280 2005 32512 ||| ref not given ||| ref [4] = [4]; PMID 19693543; doi:10.1007/s00441-009-0834-6; 4 Barczyk M. Carracedo S. Gullberg D. Integrins Cell Tissue Res. 339 1 2010 269 280 19693543 10.1007/s00441-009-0834-6 PMC2784866 ||| ref [12] = [12]; PMID 22654115; doi:10.1074/jbc.M112.353144; 12 Hamaia S.W. Pugh N. Raynal N. Nemoz B. Stone R. Gullberg D. Bihan D. Farndale R.W. Mapping of potent and specific binding motifs, GLOGEN and GVOGEA, for integrin alpha1beta1 using collagen toolkits. Particulars: cited from earlier work; for Binding to integrin α2β1, previously described: ref not given.

In the case of “GFOGER [THP containing GFOGER served as positive control, reference compound]”, the “Adhesion of C2C12-α10β1 cells to short triple-helical peptides” value (“Adhesion of C2C12-α10β1 cells” below) in the experiment with C2C12-α10β1 cells is on record as “less well”. Also, on wild type α10 I domain, the “Saturation / quality of binding, wild type α10 I domain” value is “did not saturate at up to 100 μg/ml; also recorded: good ligand”. The “Saturation / quality of binding, R215Q α10 I domain” value on R215Q α10 I domain is “did not saturate at up to 100 μg/ml; also recorded: good ligand”. The “Binding to integrin α2β1, previously described” value (shortened to “Binding to integrin α2β1”) in the experiment on α2β1 is on record as “good binding motifs”.

As for GLOGEN [short THP containing GLOGEN], the “Adhesion of C2C12-α10β1 cells” value in the experiment with C2C12-α10β1 cells was “bound strongly”. For the same substance, at wild type α10 I domain, the “KD, wild type α10 I domain” value was about 10 µg/mL and the “Saturation / quality of binding, wild type α10 I domain” value is “saturation binding”. Moreover, at R215Q α10 I domain, the “KD, R215Q α10 I domain” value is about 10 µg/mL and the “Saturation / quality of binding, R215Q α10 I domain” value is given as “enhanced binding of R215Q to GROGER but not GLOGEN; also recorded: saturation binding”. Besides, the “Binding to integrin α2β1” value in the experiment with α2β1 is given as “good binding motifs”.

For “GROGER [short triple-helical peptide containing GROGER]”, in the experiment with C2C12-α10β1 cells, the “Adhesion of C2C12-α10β1 cells” value is “absence of binding”. At wild type α10 I domain, the “KD, wild type α10 I domain” value was over 100 µg/mL and the “Saturation / quality of binding, wild type α10 I domain” value was “bound poorly”. Moreover, at R215Q α10 I domain, the “KD, R215Q α10 I domain” value is on record as “about 50 μg/ml” and the “Saturation / quality of binding, R215Q α10 I domain” value is recorded as “enhanced binding; also recorded: bound quite well”. The “Binding to integrin α2β1” value in the experiment with α2β1 is recorded as “good binding motifs”. In addition, the “Binding to α2β1” value in the experiment with α2β1 (ref [8], [10]) was “relatively good α2β1-binding motif”.
